Data reported in patent US10435355B2, “Inhibitors of fatty acid amide hydrolase (FAAH) enzyme with improved oral bioavailability and their use as medicaments” (THE REGENTS OF THE UNIVERSITY OF CALIFORNIA, priority 2014, dated 2019).

Assay: Pharmacokinetic experiment (PO and IV) in cannulated rats
Format: in vivo, Sprague-Dawley rats
Settings: rat, plasma
Protocol: Pharmacokinetic Experiment and Analysis
Compounds were administered orally (PO) and intravenously (IV) to cannulated Sprague-Dawley rats at 10 and 3 mg/kg, respectively. Vehicle was: PEG400/Tween 80/Saline solution at 10/10/80 (% in volume), respectively. Three animals per dose were treated. Blood samples at 0, 15, 30, 60, 120, 240, 480 and 1440 min after administration were collected for PO arm. Blood samples at 0, 5, 15, 30, 60, 120 and 240 min after administration were collected for IV arm. Plasma was separated from blood by centrifugation for 15 min at 3500 rpm a 4° C., collected in a Eppendorf tube and frozen (−80° C.). Control animals treated with vehicle only were also included in the experimental protocol.
Preparation of Samples, Standard Curve and QC Samples for UPLC-MS Analysis
Samples were thawed in an ice bath and after a short centrifugation transferred (50 μL) into a 96-deepwell plate and added with 150 μL of acetonitrile spiked with 200 nM Warfarin (the Internal Standard, I.S.). After agitation (3 min) the plate was centrifuged at 3000 g for 10 min at 4° C. […]
Compounds plasma levels were monitored on a Xevo TQ UPLC-MS/MS system (Waters, Milford USA), using the calibration curve and the internal standard (Warfarin). […] Plasma levels data were analyzed using PKSolutions excel application (Summit Research Service, USA) to derive the most important pharmacokinetic parameters. […]

For `CNC(=O)c1cccc(-c2cccc(OC(=O)NC3CCCCC3)c2)c1`, the “AUC PO (10 mg/kg)” value was 90205 ng·min/mL.
